One test has as its target T1, human Fatty Acid Synthase (Homo sapiens, UniProt P49327).
T1 construct: made in house
In words: Human FAS enzyme assay (decrease in NADPH fluorescence). The format is biochemical. The settings on record: % inhibition at a concentration of 100 μmolar. The essentials:
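In-house human FAS was preincubated with compound and NADPH for 15 min at room temperature in 0.1 M Tris pH 7.5 with EDTA, glutathione and BSA. Malonyl CoA and acetyl CoA (500 μM and 150 μM in the added mix) were then added for 60 min. IC50 came from time-zero-subtracted NADPH fluorescence (340/460 nm).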
T1 sequence (P49327 whole entry): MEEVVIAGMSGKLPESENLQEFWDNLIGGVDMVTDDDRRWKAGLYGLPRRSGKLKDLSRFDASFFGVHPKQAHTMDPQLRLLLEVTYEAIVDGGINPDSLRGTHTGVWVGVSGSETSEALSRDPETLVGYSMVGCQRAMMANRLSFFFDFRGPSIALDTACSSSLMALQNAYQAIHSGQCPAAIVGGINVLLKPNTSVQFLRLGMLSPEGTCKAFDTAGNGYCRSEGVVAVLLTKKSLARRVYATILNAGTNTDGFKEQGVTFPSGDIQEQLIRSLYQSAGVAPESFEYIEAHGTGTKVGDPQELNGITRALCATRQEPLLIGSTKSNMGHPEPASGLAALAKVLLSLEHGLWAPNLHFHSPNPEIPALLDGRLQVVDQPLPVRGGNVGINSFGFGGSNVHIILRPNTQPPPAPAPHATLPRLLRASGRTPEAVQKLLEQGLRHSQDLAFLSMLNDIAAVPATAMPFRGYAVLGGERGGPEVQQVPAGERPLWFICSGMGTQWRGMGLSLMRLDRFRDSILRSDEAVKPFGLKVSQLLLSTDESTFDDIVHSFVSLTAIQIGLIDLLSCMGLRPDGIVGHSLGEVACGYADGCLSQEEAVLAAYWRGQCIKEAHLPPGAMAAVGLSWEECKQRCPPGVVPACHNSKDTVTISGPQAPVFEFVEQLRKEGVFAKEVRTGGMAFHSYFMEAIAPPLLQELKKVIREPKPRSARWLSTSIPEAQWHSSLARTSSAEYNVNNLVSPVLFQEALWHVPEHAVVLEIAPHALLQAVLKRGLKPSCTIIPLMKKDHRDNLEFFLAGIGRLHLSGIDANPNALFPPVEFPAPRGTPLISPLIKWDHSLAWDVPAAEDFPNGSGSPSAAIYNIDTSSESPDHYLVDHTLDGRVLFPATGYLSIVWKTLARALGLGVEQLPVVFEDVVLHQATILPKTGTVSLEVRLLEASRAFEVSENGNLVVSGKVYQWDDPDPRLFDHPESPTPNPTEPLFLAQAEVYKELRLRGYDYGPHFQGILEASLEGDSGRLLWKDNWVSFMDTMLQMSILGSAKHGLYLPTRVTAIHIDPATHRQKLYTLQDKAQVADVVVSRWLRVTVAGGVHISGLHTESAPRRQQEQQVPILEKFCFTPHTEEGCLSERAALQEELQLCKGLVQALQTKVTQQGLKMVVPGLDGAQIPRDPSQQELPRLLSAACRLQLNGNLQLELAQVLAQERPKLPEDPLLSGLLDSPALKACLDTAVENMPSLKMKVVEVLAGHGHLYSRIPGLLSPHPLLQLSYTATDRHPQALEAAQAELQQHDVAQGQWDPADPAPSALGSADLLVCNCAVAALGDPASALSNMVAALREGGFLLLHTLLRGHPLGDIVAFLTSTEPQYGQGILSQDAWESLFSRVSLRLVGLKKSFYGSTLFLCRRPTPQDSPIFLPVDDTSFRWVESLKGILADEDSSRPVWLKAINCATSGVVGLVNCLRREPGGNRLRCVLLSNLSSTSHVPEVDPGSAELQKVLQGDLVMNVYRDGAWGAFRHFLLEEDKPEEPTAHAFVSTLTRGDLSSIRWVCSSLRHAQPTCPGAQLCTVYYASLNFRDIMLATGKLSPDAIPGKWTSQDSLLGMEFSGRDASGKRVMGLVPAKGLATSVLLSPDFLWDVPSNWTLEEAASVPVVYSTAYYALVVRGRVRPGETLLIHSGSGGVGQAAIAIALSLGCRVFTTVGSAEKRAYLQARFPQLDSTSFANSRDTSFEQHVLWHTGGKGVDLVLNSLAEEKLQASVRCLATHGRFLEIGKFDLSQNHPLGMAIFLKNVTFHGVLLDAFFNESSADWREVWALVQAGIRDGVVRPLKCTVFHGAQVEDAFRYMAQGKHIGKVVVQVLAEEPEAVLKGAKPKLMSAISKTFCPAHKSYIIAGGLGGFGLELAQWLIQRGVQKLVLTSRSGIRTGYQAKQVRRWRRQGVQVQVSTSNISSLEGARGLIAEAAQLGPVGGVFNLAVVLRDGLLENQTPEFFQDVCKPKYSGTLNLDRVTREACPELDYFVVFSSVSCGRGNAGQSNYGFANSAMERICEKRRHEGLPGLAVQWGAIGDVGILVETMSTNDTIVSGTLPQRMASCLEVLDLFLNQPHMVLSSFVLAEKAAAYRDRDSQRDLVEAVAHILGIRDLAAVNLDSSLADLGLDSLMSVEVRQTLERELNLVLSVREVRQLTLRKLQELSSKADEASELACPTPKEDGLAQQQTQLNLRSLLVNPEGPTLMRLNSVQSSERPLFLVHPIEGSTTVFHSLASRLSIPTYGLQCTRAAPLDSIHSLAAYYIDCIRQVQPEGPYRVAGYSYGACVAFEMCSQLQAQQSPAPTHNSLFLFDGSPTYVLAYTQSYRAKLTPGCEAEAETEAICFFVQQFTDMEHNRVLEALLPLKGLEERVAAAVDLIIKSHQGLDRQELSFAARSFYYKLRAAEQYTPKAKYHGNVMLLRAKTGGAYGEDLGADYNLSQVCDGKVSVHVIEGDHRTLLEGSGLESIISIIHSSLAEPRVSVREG
Take `Cc1ccc(C(=O)N2CCC(c3ccc(C#N)cc3)CC2)cc1NC(=O)N1CCN(S(C)(=O)=O)CC1` [Example 322, N-[5-[4-(4-cyanophenyl)piperidine-1-carbonyl]-2-methyl-phenyl]-4-methylsulfonyl-piperazine-1-carboxamide]: the inhibition at 100 µM came out at 90.5%.
The same measure, in the same setting: to `Cc1ccc(C(=O)N2CCC(c3ccc(C#N)cc3)CC2)cc1NC(=O)NCCCN(C)C` [Example 138, 1-[5-[4-(4-cyanophenyl)piperidine-1-carbonyl]-2-methyl-phenyl]-3-(3-dimethylaminopropyl)urea] belongs 83.7%.
The same measure, in the same setting: to `Cc1ccc(C(=O)N2CCC(c3ccc(C#N)cc3)CC2)cc1NC(=O)N[C@@H]1CCN(C(=O)OC(C)(C)C)C1` [Example 209, tert-butyl (3R)-3-[[5-[4-(4-cyanophenyl)piperidine-1-carbonyl]-2-methyl-phenyl]carbamoylamino]pyrrolidine-1-carboxylate] belongs 89.7%; to `Cc1ccc(C(=O)N2CCC(c3ccc(C#N)cc3)CC2)cc1NC(=O)NCCN(C)C` [Example 145, 1-[5-[4-(4-cyanophenyl)piperidine-1-carbonyl]-2-methyl-phenyl]-3-(2-dimethylaminoethyl)urea], 79.3%; to `Cc1ccc(C(=O)N2CCC(c3ccc(C#N)cc3)CC2)cc1NC(=O)NCCCNC(=O)N1CCOCC1` [Example 233, N-[3-[[5-[4-(4-cyanophenyl)piperidine-1-carbonyl]-2-methyl-phenyl]carbamoylamino]propyl]morpholine-4-carboxamide], 86.5%.
The same measure, in the same setting: the figure for `Cc1ccc(C(=O)N2CCC(c3ccc(C#N)cc3)CC2)cc1NC(=O)NC1CCCCC1O` (racemic) [Example 187, (RS) 1-[5-[4-(4-cyanophenyl)piperidine-1-carbonyl]-2-methyl-phenyl]-3-(2-hydroxycyclohexyl)urea] is 90.4%; for `Cc1ccc(C(=O)N2CCC(c3ccc(C#N)cc3)CC2)cc1NC(=O)NC1CN(S(=O)(=O)N(C)C)C1` [Example 303, 1-[5-[4-(4-cyanophenyl)piperidine-1-carbonyl]-2-methyl-phenyl]-3-[1-(dimethylsulfamoyl)azetidin-3-yl]urea] it is 93.5%.
Turning to `Cc1ccc(C(=O)N2CCC(c3ccc(C#N)cc3)CC2)cc1NC(=O)NCc1ccc(-c2csnn2)cc1` [Example 75, 1-[5-[4-(4-cyanophenyl)piperidine-1-carbonyl]-2-methyl-phenyl]-3-[[4-(thiadiazol-4-yl)phenyl]methyl]urea], the inhibition at 100 µM worked out at 87.4%.
On the same count and under the same terms, the figure for `Cc1ccc(C(=O)N2CCC(c3ccc(C#N)cc3)CC2)cc1NC(=O)N[C@@H]1CCCC[C@H]1N` (relative stereo) [Example 305, 3-[(trans)-2-aminocyclohexyl]-1-[5-[4-(4-cyanophenyl)piperidine-1-carbonyl]-2-methyl-phenyl]urea] is 78.8%; for `COc1ccccc1OCCNC(=O)Nc1cc(C(=O)N2CCC(c3ccc(C#N)cc3)CC2)ccc1C` [Example 83, 1-[5-[4-(4-cyanophenyl)piperidine-1-carbonyl]-2-methyl-phenyl]-3-[2-(2-methoxyphenoxy)ethyl]urea] it is 102%; for `CCCCNC(=O)Nc1ccc(C)c(C(=O)N2CCC(c3ccc(C#N)cc3)CC2)c1` [Example 20, 1-butyl-3-[3-[4-(4-cyanophenyl)piperidine-1-carbonyl]-4-methyl-phenyl]urea] it is 79.2%.
Same read-out and setting: the figure for `Cc1ccc(C(=O)N2CCC(c3ccc(C#N)cc3)CC2)cc1NC(=O)NCCC(=O)NCCO` [Example 230, 3-[[5-[4-(4-cyanophenyl)piperidine-1-carbonyl]-2-methyl-phenyl]carbamoylamino]-N-(2-hydroxyethyl)propanamide] is 94.3%; for `Cc1ccc(C(=O)N2CCC(c3ccc(C#N)cc3)CC2)cc1NC(=O)NCc1ccn(C)n1` [Example 290, 1-[5-[4-(4-cyanophenyl)piperidine-1-carbonyl]-2-methyl-phenyl]-3-[(1-methylpyrazol-3-yl)methyl]urea] it is 102%; for `Cc1ccc(NC(=O)NCc2ccncc2)cc1C(=O)N1CCC(c2ccc(C#N)cc2)CC1` [Example 379, 1-[3-[4-(4-cyanophenyl)piperidine-1-carbonyl]-4-methylphenyl]-3-(pyridin-4-ylmethyl)urea] it is 73.3%.
Consider `Cc1ccc(C(=O)N2CCC(c3ccc(C#N)cc3)CC2)cc1NC(=O)NCCN1CCCC1` [Example 137, 1-[5-[4-(4-cyanophenyl)piperidine-1-carbonyl]-2-methyl-phenyl]-3-(2-pyrrolidin-1-ylethyl)urea], for which the inhibition at 100 µM came out at 87.9%.
On the same count and under the same terms, to `CCCCNC(=O)NCCNC(=O)Nc1cc(C(=O)N2CCC(c3ccc(C#N)cc3)CC2)ccc1C` [Example 172, 1-butyl-3-[2-[[5-[4-(4-cyanophenyl)piperidine-1-carbonyl]-2-methyl-phenyl]carbamoylamino]ethyl]urea] belongs 91.8%.
Same read-out and setting: to `Cc1ccc(C(=O)N2CCC(c3ccc(C#N)cc3)CC2)cc1NC(=O)NCCCCNC(=O)OC(C)(C)C` [Example 69, tert-butyl N-[4-[[5-[4-(4-cyanophenyl)piperidine-1-carbonyl]-2-methyl-phenyl]carbamoylamino]butyl]carbamate] belongs 87.9%; to `Cc1ccc(C(=O)N2CCC(O)(c3ccc(Cl)cc3)CC2)cc1NC(=O)NC(C)C` [Example 350, 1-[5-[4-(4-chlorophenyl)-4-hydroxy-piperidine-1-carbonyl]-2-methyl-phenyl]-3-propan-2-yl-urea], 71.4%.
Still for that read-out and setting: the figure for `Cc1ccc(C(=O)N2CCC(c3ccc(C#N)cc3)CC2)cc1NC(=O)NCc1cccc(C#N)c1` [Example 108, 3-[(3-cyanophenyl)methyl]-1-[5-[4-(4-cyanophenyl)piperidine-1-carbonyl]-2-methyl-phenyl]urea] is 91.8%.
Regarding `Cc1ccc(NC(=O)NC(C)C)cc1C(=O)N1CCC(c2ccc(C#N)cc2)CC1` [Example 404, 1-[3-[4-(4-cyanophenyl)piperidine-1-carbonyl]-4-methylphenyl]-3-propan-2-ylurea], the inhibition at 100 µM came to 76.5%.
On to `Cc1ccc(NC(=O)N(C)C)cc1C(=O)N1CCC(c2ccc(C#N)cc2)CC1` [Example 380, 3-[3-[4-(4-cyanophenyl)piperidine-1-carbonyl]-4-methylphenyl]-1,1-dimethylurea], for which the inhibition at 100 µM came out at 74.8%.
Same read-out and setting: the figure for `Cc1ccc(C(=O)N2CCC(c3ccc(C#N)cc3)CC2)cc1NC(=O)NC1CONC1=O` (centres unmarked) [Example 383, 1-[5-[4-(4-cyanophenyl)piperidine-1-carbonyl]-2-methylphenyl]-3-(3-oxo-1,2-oxazolidin-4-yl)urea] is 73.6%; for `Cc1ccc(C(=O)N2CCC(c3ccc(C#N)cc3)CC2)cc1NC(=O)NC(Cc1ccc(F)cc1)C(=O)O` (centres unmarked) [Example 369, 2-[[5-[4-(4-cyanophenyl)piperidine-1-carbonyl]-2-methylphenyl]carbamoylamino]-3-(4-fluorophenyl)propanoic acid] it is 88.5%; for `COc1ncccc1-c1cc(CNC(=O)Nc2cc(C(=O)N3CCC(c4ccc(C#N)cc4)CC3)ccc2C)on1` [Example 251, 1-[5-[4-(4-cyanophenyl)piperidine-1-carbonyl]-2-methyl-phenyl]-3-[[3-(2-methoxypyridin-3-yl)-1,2-oxazol-5-yl]methyl]urea] it is 88.4%.
On the same count and under the same terms, the figure for `Cc1ccc(C(=O)N2CCC(c3ccc(C#N)cc3)CC2)cc1NC(=O)NC1CN2CCC1CC2` (centres unmarked) [Example 143, 3-(1-azabicyclo[2.2.2]oct-8-yl)-1-[5-[4-(4-cyanophenyl)piperidine-1-carbonyl]-2-methyl-phenyl]urea] is 84.4%; for `CNC(=O)c1ccc(C2CCN(C(=O)c3ccc(C)c(NC(=O)NC(C)C)c3)CC2)cc1` [Example 329, N-methyl-4-[1-[4-methyl-3-(propan-2-ylcarbamoylamino)benzoyl]-4-piperidyl]benzamide] it is 84.3%.
On the same count and under the same terms, to `Cc1cccc(CNC(=O)Nc2cc(C(=O)N3CCC(c4ccc(C#N)cc4)CC3)ccc2C)c1` [Example 54, 3-[5-[4-(4-cyanophenyl)piperidine-1-carbonyl]-2-methyl-phenyl]-1-[(3-methylphenyl)methyl]urea] belongs 92.2%; to `Cc1ccc(C(=O)N2CCC(c3ccc(C#N)cc3)CC2)cc1NC(=O)NCCNC(=O)c1cccn1C` [Example 118, N-[2-[[5-[4-(4-cyanophenyl)piperidine-1-carbonyl]-2-methyl-phenyl]carbamoylamino]ethyl]-1-methyl-pyrrole-2-carboxamide], 96.2%; to `Cc1ccc(C(=O)N2CCC(c3ccc(C#N)cc3)CC2)cc1NC(=O)NCCNc1ccc([N+](=O)[O-])cc1` [Example 87, 1-[5-[4-(4-cyanophenyl)piperidine-1-carbonyl]-2-methyl-phenyl]-3-[2-[(4-nitrophenyl)amino]ethyl]urea], 92.5%.
Take `Cc1ccc(NC(=O)NCc2ccc(C#N)cc2)cc1C(=O)N1CCC(c2ccc(C#N)cc2)CC1` [Example 378, 3-[(4-cyanophenyl)methyl]-1-[3-[4-(4-cyanophenyl)piperidine-1-carbonyl]-4-methylphenyl]urea]: the inhibition at 100 µM was 73.2%.

The test is the same for the next values; noted with them: FAS enzyme assay, IC50 from fitted sigmoid curves.
For `COc1cccc(C2CCN(C(=O)c3ccc(C)c(NC(=O)NC(C)C)c3)CC2)c1` [1-[5-[4-(3-methoxyphenyl)piperidine-1-carbonyl]-2-methylphenyl]-3-propan-2-ylurea], the “IC50, inhibition of human Fatty Acid Synthase” value was “do not have IC50s in the range of about 0.001 μM to about 30 μM”.
As to `COc1ccc(NC(=O)NCc2ccccc2)cc1C(=O)N1CCC(c2ccc(C#N)cc2)CC1` [3-benzyl-1-[3-[4-(4-cyanophenyl)piperidine-1-carbonyl]-4-methoxyphenyl]urea], the “IC50, inhibition of human Fatty Acid Synthase” value is “do not have IC50s in the range of about 0.001 μM to about 30 μM”.

The record behind these values is US20090118332A1, “Therapeutic Agents - 551” (AstraZeneca AB, priority 2006, published 2009).
